According to patent US20260116845A1, “LIPIDS AND COMPOSITIONS THEREOF” (Kernal Biologics, Inc., priority 2023, published 2026):

Assays:
[1] = test system: B16F10 Cell Line; assay: Transfection of B16F10 Cell Line with FLuc mRNA LNPs (ONE-Glo EX luciferase signal); type: cell-based; conditions: 200 ng Fluc mRNA-LNP, 24 hours
Summary of the method: (§1)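 LNPs (ionizable/structural/helper/PEG lipids, microfluidic mixing, mRNA quantified by RiboGreen) pre-incubated 30 min with mouse serum, then added at 200 ng mRNA per well in Opti-MEM to B16F10, MC38.K (5,000 cells/well) or AML12 (20,000 cells/well). Luminescence read after 24 h transfection.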

[2] = test system: MC38.K Cell Line; assay: Transfection of MC38.K Cell Line with FLuc mRNA LNPs (ONE-Glo EX luciferase signal); type: cell-based; conditions: 200 ng Fluc mRNA-LNP, 24 hours; for Total Luciferin Signal (RLU) In Vitro-MC38: Table 5; for Total Luciferin Signal (RLU) In Vitro - MC38.K: Table 4
Summary of the method: as §1

[3] = test system: AML12 Cell Line; assay: Transfection of AML12 Cell Line with FLuc mRNA LNPs (ONE-Glo EX luciferase signal); type: cell-based; conditions: 200 ng Fluc mRNA-LNP, 24 hours
Summary of the method: as §1

[4] = test system: Liver; assay: Ex-vivo luminescence signal from liver after IV Fluc mRNA LNPs in CD1 mice (IVIS); conditions: tail vein 1.0 mg/kg Day 0 and Day 2, imaging 18 hours after second dose; for Total Liver Tissue Luciferin Signal (Photons/s) In Vivo-Cd1: Table 5; for Total Liver Tissue Luciferin Signal (Photons/s) Ex-vivo - CD1: Table 4
[5] = test system: Spleen; assay: Ex-vivo luminescence signal from spleen after IV Fluc mRNA LNPs in CD1 mice (IVIS); conditions: tail vein 1.0 mg/kg Day 0 and Day 2, imaging 18 hours after second dose, Table 5
[6] = test system: hepatocytes; assay: Comparative study of fluoro v. non-fluoro compounds: Firefly Luciferase transfection efficiency; type: cell-based; conditions: Firefly Luciferase expression in hepatocytes; pairs Compound 54 v. 58 and Compound 68 v. 67
Excerpt: Transfection efficiency was compared between three pairs of compounds, Compound 54 v. Compound 58, Compound 68 v. Compound 67, and Compound 37 v. Compound 61. For each pair, the compounds only differ on one fluoro-substitution at the end of an alkyl chain. For example, the structures of Compound 54 and Compound 58 are shown below:
In vitro and in vivo comparison of Firefly Luciferase expression data of fluoro v. non-fluoro compounds were obtained according to procedure similar to those in Example 3 and Example 7. […] Compound 58 and Compound 68 v. Compound 67 in hepatocytes.

[7] = test system: C57BL/6 mice; assay: Multi-dose tolerability screening of NT-beta-Actin mRNA LNPs in MC38.K-inoculated C57BL/6 mice; type: in vivo; conditions: C57BL/6 mice with MC38.K, 1.0 mg/kg IV twice a week for two weeks
Procedure: NT-beta-Actin mRNA LNPs with different ionizable lipids were administered IV to C57BL/6 mice, inoculated with MC38.K cells, via the tail vein for a total of four doses (twice a week for two consecutive weeks) at a concentration of 1.0 mg/kg. Bodyweights were monitored and blood was collected pre-dose, 24 hours post first dose, 24 hours post fourth dose, and analyzed for cytokines, blood chemistry, and liver/spleen weights. Compounds 23, 99 and 101 were formulated using a peripheral process method. C57BL/6 mice were inoculated with MC38.K cells. Once tumors had grown, 1.0 mg/kg (Beta-Actin mRNA) of each LNP was intravenously administered twice a week for two weeks. […] N=6 per group for bodyweights, N=3 for blood analysis. Mean+/−SD.

Row | SMILES | Total Luciferin Signal (RLU) In Vitro - B16F10 ([1]; Table 5) | Total Luciferin Signal (RLU) In Vitro-MC38 [2] | Total Luciferin Signal (RLU) In Vitro - AML12 ([3]; Table 5) | Total Liver Tissue Luciferin Signal (Photons/s) In Vivo-Cd1 [4] | Total Spleen Tissue Luciferin Signal (Photons/s) In Vivo-Cd1 [5] | Total Luciferin Signal (RLU) In Vitro - B16F10 ([1]; Table 4) | Total Luciferin Signal (RLU) In Vitro - MC38.K [2] | Total Luciferin Signal (RLU) In Vitro - AML12 ([3]; Table 4) | difference in transfection efficiency within fluoro v. non-fluoro pair [6] | Total Liver Tissue Luciferin Signal (Photons/s) Ex-vivo - CD1 [4] | tolerability [7] | adverse clinical observations ([7]; compared to Compound 23 LNPs) | reduction in white blood cells and lymphocytes in the blood ([7]; compared to Compound 23 LNPs)
1 | CCCCCCCC/C=C\CCCCCCC1CN(CCOC(=O)CCCN(C)C)CC(CCCCCC/C=C\CCCCCCCC)O1 (centres unmarked) [Compound 93, 2-{2,6-bis[(Z)-7-hexadecenyl]-4-morpholinyl}ethyl 4-(dimethylamino)butyrate] | 4.80E+05 RLU | 3.69E+05 RLU | 3.05E+07 RLU | 1.72E+06 Photons/s | 2.48E+06 Photons/s |  |  |  |  |  |  |  | 
2 | CCCCCCCCCCCCC1CN(CCO)CC(CCCCCCCCCCCC)O1 (centres unmarked) [Compound 90, 2-(2,6-didodecylmorpholino)ethan-1-ol] | 8.93E+04 RLU |  | 2.69E+04 RLU | 3.35E+06 Photons/s | 5.69E+05 Photons/s |  |  |  |  |  |  |  | 
3 | CCCCCCCCC(CCCCCCCC)OC(=O)CCCCCC1CN(CCOC(=O)CCN(C)C)CC(CCCCCC(=O)OC(CCCCCCCC)CCCCCCCC)O1 (centres unmarked) [Compound 100, di(heptadecan-9-yl) 6,6′-(4-(2-((3-(dimethylamino)propanoyl)oxy)ethyl)morpholine-2,6-diyl)dihexanoate] | 6.29E+04 RLU | 3.18E+04 RLU | 1.43E+04 RLU | 6.44E+09 Photons/s | 2.92E+07 Photons/s |  |  |  |  |  |  |  | 
4 | CCCCCCCC/C=C\CCCCCCC1CN(CCO)CC(CCCCCC/C=C\CCCCCCCC)O1 (centres unmarked) [Compound 92, 2-(2,6-di((Z)-hexadec-7-en-1-yl)morpholino)ethan-1-ol] | 8.03E+05 RLU |  | 2.46E+04 RLU | 1.07E+07 Photons/s | 2.05E+06 Photons/s |  |  |  |  |  |  |  | 
5 | CCCCCCCCC(CCCCCCCC)OC(=O)CCCCCCCN(CCO)CCCCCCCOC(=O)CCCCCCCC=C(C)C [Compound 54, 7-((8-(heptadecan-9-yloxy)-8-oxooctyl)(2-hydroxyethyl)amino)heptyl 10-methylundec-9-enoate] |  |  |  |  |  | 7.25E+05 RLU | 5.12E+06 RLU | 1.05E+06 RLU | Statistically significant difference in transfection efficiency | 8.29E+09 Photons/s |  |  | 
6 | CCCCCCCCCOC(=O)CCCCCC1CN(CCOC(=O)CCN(C)C)CC(CCCCCC(=O)OC(CCCCCCCC)CCCCCCCC)O1 (centres unmarked) [Compound 101, heptadecan-9-yl 6-(4-(2-((3-(dimethylamino)propanoyl)oxy)ethyl)-6-(6-(nonyloxy)-6-oxohexyl)morpholin-2-yl)hexanoate] | 6.73E+04 RLU | 6.90E+05 RLU | 9.36E+04 RLU | 6.70E+08 Photons/s | 1.57E+08 Photons/s |  |  |  |  |  | improved tolerability | less adverse clinical observations | less of a reduction in white blood cells and lymphocytes
7 | CCCCCCCC/C=C\CCCCCCC1CN(CCOC(=O)CCCN(C)C)CC(CCCCCC(=O)OC(CCCCCCCC)CCCCCCCC)O1 (centres unmarked) [Compound 94, heptadecan-9-yl (Z)-6-(4-(2-((4-(dimethylamino)butanoyl)oxy)ethyl)-6-(hexadec-7-en-1-yl)morpholin-2-yl)hexanoate] | 2.82E+06 RLU | 1.75E+06 RLU | 1.41E+06 RLU | 1.30E+07 Photons/s | 1.22E+07 Photons/s |  |  |  |  |  |  |  | 
8 | CCCCCCCCC(CCCCCCCCF)OC(=O)CCCCCCCN(CCCCO)CCCCCCC(C)C(=O)OCCCCCCCCC(C)C (centres unmarked) [Compound 67, 9-methyldecyl 8-((8-((1-fluoroheptadecan-9-yl)oxy)-8-oxooctyl)(4-hydroxybutyl)amino)-2-methyloctanoate] |  |  |  |  |  | 2.75E+06 RLU | 3.24E+07 RLU | 4.35E+06 RLU | Statistically significant difference in transfection efficiency | 5.31E+09 Photons/s |  |  | 
9 | CCCCCCCC/C=C\CCCCCCC1CN(CCCOC(=O)CCN(C)C)CC(CCCCCC/C=C\CCCCCCCC)O1 (centres unmarked) [Compound 96, 3-(2,6-di((Z)-hexadec-7-en-1-yl)morpholino)propyl 3-(dimethylamino)propanoate] | 1.16E+05 RLU | 1.25E+05 RLU | 1.49E+05 RLU | 4.34E+06 Photons/s | 6.35E+06 Photons/s |  |  |  |  |  |  |  | 
10 | CCCCCCCC/C=C\CCCCCCC1CN(CCOC(=O)CCN(C)C)CC(CCCCCC(=O)OC(CCCCCCCC)CCCCCCCC)O1 (centres unmarked) [Compound 97, heptadecan-9-yl (Z)-6-(4-(2-((3-(dimethylamino)propanoyl)oxy)ethyl)-6-(hexadec-7-en-1-yl)morpholin-2-yl)hexanoate] | 2.98E+06 RLU | 6.42E+05 RLU | 2.58E+05 RLU | 2.08E+08 Photons/s | 1.60E+07 Photons/s |  |  |  |  |  |  |  | 
11 | CCCCCCCC/C=C\CCCCCCC1CN(CCO)CC(CCCCCCCCCCCC)O1 (centres unmarked) [Compound 91, (Z)-2-(2-dodecyl-6-(hexadec-7-en-1-yl)morpholino)ethan-1-ol] | 2.02E+05 RLU |  | 1.94E+04 RLU | 3.65E+06 Photons/s | 1.44E+06 Photons/s |  |  |  |  |  |  |  | 
12 | CCCCCCCCC(CCCCCCCC)C(=O)OCCCCCCCN(CCO)CCCCCCCC(=O)OCCCCCCCCC(C)C [Compound 4] |  |  |  |  |  | 2.16E+06 RLU | 3.54E+06 RLU | 1.72E+06 RLU |  | 1.06E+09 Photons/s |  |  | 
13 | CCCCCCCC/C=C\CCCCCCC1CN(CCOC(=O)CCN(C)C)CC(CCCCCC/C=C\CCCCCCCC)O1 (centres unmarked) [Compound 95, 2-(2,6-di((Z)-hexadec-7-en-1-yl)morpholino)ethyl 3-(dimethylamino)propanoate] | 2.09E+05 RLU | 7.12E+04 RLU | 1.49E+05 RLU | 2.92E+06 Photons/s | 2.69E+06 Photons/s |  |  |  |  |  |  |  | 
14 | CCCCCCCCCOC(=O)CCCCCCCN(CCCCO)CCCCCCCC(=O)OCC(CCCCCC)CCCCCCCCF (centres unmarked) [Compound 71, 10-fluoro-2-hexyldecyl 8-((4-hydroxybutyl)(8-(nonyloxy)-8-oxooctyl)amino)octanoate] |  |  |  |  |  | 1.67E+06 RLU | 1.57E+07 RLU | 4.77E+06 RLU |  | 1.75E+09 Photons/s |  |  | 
